How the values were obtained:
tim23 mutant = experiment: Yeast growth inhibition (MIC50), tim23 mutant; format: cell-based; conditions: Saccharomyces cerevisiae; disrupted for prd5 and snq2
[1] = system: strains lacking the mitochondrial genome (rho null); experiment: Yeast growth inhibition, rho null strains; format: cell-based
Excerpt: In general, a standard set of genetic and molecular techniques were used to generate the strains in this study (31, 32). Screening strains were generated based on previously characterized temperature sensitive mutants (see supplementary table 1). The snq1 and pdr5 deletions were introduced in each strain by strain mating with MDY326 or PCR-mediated deletion (33, 34). Overexpression strains were generated by transforming 2p yeast shuttle vectors carrying the gene of interest with the native promoter into the tim10-1 strain using a standard LiCl protocol (35). Transformed yeast was maintained on selective media appropriate for the plasmid's auxotrophic marker. Strains lacking mitochondrial DNA (rho null) were generated by two rounds of selection of the parent on YPD plates supplemented with ethidium bromide (40 μg/ml) followed by two rounds of single colony selection on YPD plates.
A primary screen was performed using freshly streaked tim10-1 diluted in YPD to an OD600 of approximately 0.0002 and kept on ice throughout the screening run. […] Each plate was shaken in a Beckman orbital shaker to resuspend settled cells, and the OD600 in each well was read by a Wallac Victor plate reader (Perkin Elmer). The top 600 growth inhibitory compounds were determined and assembled into two plates. […]

HeLa cells [2] = experiment: MTT cell viability assay in HeLa cells (MitoBloCK-1); format: cell-based; conditions: 25 μM and 50 μM, 24 hours
Description: Measurements of cell viability/toxicity were made with a MTT based toxicology assay kit (Sigma-Aldrich). HeLa cells were grown in 24-well tissue culture dishes to 80% confluency. […] Following drug treatment, cells were rinsed with phosphate buffered saline and incubated with complete media with MTT solution supplement for additional 4 hours as described in manufacturer's protocols. This media was removed and 500 μL of MTT solubilization solution was added to dissolve the formazan crystals. The formazan absorbance was measured at OD=570 nm on a Wallac Victor plate reader (Perkin Elmer) along with a turbidity measurement at OD=630 nm. After turbidity subtraction, the percent viability of each cell sample was calculated as: [(absorbance of vehicle treated cells−absorbance of drug treated cells)/(absorbance of vehicle treated cells)]×100.

Tim9-Tim10 complex = target: T1, Tim9-Tim10 complex (Saccharomyces cerevisiae, UniProt O74700+P87108); experiment: Tim9-Tim10 complex stability by blue native gel; format: biochemical, yeast; conditions: 25 and 50 μM; BN gel
T1 construct: endogenous in cells; host or cells: isolated yeast mitochondria
T1 sequence (O74700 whole entry): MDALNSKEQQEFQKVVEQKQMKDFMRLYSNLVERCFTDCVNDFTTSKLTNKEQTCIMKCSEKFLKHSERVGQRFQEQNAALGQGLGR
T1 sequence (P87108 whole entry): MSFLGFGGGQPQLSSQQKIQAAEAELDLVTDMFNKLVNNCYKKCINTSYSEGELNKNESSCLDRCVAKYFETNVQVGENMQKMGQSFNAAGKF
Description: Respiration measurements were performed with an oxygen electrode using yeast mitochondria (M) from the tim10 tim9S suppressor strain in the presence of (A) 1% DMSO (vehicle control for drug) and (B) MitoBloCK-1. Respiration was initiated with NADH addition. 25 μM MitoBloCK-1 or 1% DMSO was added once steady-state respiration had been established. As a control, CCCP was added to uncouple the electron transport chain. (C) Respiration for series with DMSO or MitoBloCK-1 addition was quantitated (n=3). Bars represent mean rates with standard deviations as error bars. (D) Membrane potential (Δψ) of mitochondria measurements of purified mitochondria were performed with the fluorescent dye rhodamine 123 using a fluorimeter. Coupled mitochondria (M) sequestered and quenched the dye fluorescence; 1% DMSO was added to determine its effect on the […]. Collapse of the Δψ initiated by CCCP was included as a control. […] (H) As in 7B, MitoBloCK-1 (25 and 50 μM) was incubated with mitochondria and assembly of the Tim9-Tim10 complex was monitored by BN gels and immunoblotting with antibodies against Tim 10.
Steady-state levels of the small Tim complexes were analyzed from mitochondria isolates from TIA110,titn10-1, and titn10-1 titn9S strains following established methods (Murphy M P, et al., (2001), Mol Cell Biol 21:6132-6138). […]

HeLa cells [3] = experiment: MTT cell viability assay in HeLa cells (MitoBloCK-6); format: cell-based; conditions: 100 μM
Description: Measurements for cell viability were made with a MTT based toxicology assay kit (Sigma) as described previously (Hasson et al., 2010). Briefly, HeLa cells were grown in 24-well tissue culture dishes to 80% confluency. Cells were then treated with DMSO or MitoBloCK-6 in complete medium for 12 h and reacted with MTT solution supplement for additional 4 hr as described in manufacturer's protocols. Percentage viability of each cell sample was calculated as: [(absorbance of vehicle treated cells)−(absorbance of MitoBloCK-6 treated cells)/(absorbance of vehicle treated cells)]×100.

Compound	MIC50 (tim23 mutant) [µM]	sensitivity of rho null strains [1]	cell viability (MTT) (HeLa cells [2])	steady-state stability of the Tim9-Tim10 complex (Tim9-Tim10 complex)	cell viability (MTT) (HeLa cells [3])
NC(=S)N/N=C/c1c(O)c(Br)cc2oc3c(c12)CCCC3 [MitoBloCK-1]	> 200	sensitive	significantly decreased in a dose-responsive manner	did not alter steady-state stability of the Tim9-Tim10 complex	–
Oc1c(Cl)cc(Cl)cc1/C=N/c1ccc(Nc2ccccc2)cc1 [MitoBloCK-6]	–	–	–	–	did not significantly reduce cell viability
